Assay in all cases: inhibition of tumour cell growth, NCI panel, 48 h
Test [1] deals with 786-0.
Test [2] relates to A549.
Test [3] relates to ACHN.
For test [4], the system named is CAKI-1.
Test [5] deals with COLO 205.
Test [6] deals with DU-145.
Test [7] deals with EKVX.
The subject of test [8] is HL-60.
For test [9], the system named is K562.
For test [10], the system named is M14.
The subject of test [11] is MDA-N.
The test system of test [12] is MOLT-4.
The test system of test [13] is Malme-3M.
For test [14], the system named is NCI-H226.
Test [15] deals with NCI-H23.
In test [16] the test system is OVCAR-3.
Test [17] has as its system RXF 393.
For test [18], the system named is SN12C.
In test [19] the test system is SR.
The subject of test [20] is UACC-257.

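How tested: cells in 96-well plates exposed to compound for 48 hours at five concentrations. At the GI50, growth is halved.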 Activity calls are given as the source filed them. No stated cut-off is given here; in the data, active = GI50 up to about 1.1 µM and inactive = higher.

Regarding `CN1CN(c2ccccc2)C2(CCN(Cc3csc4ccccc34)CC2)C1=O`, the GI50 is 19.4 µM (inactive) in test [1]; 18.6 µM (inactive) in test [2]; 17.6 µM (inactive) in test [3]; 7.45 µM (inactive) in [4]; 11.1 µM (inactive) in [5]; 49.2 µM (inactive) in test [6]. For the same molecule, the GI50 in [7] was 7.53 µM (inactive); in test [8], 4.39 µM (inactive); in [9], 5.45 µM (inactive); in test [10], 13.7 µM (inactive); in test [11] it was 15.2 µM (inactive); in [12], 4.32 µM (inactive). Moreover, the GI50 was 17.2 µM (inactive) in test [13]; 21 µM (inactive) in [14]; 6.44 µM (inactive) in test [15]; 8.85 µM (inactive) in [16]; 16.6 µM (inactive) in [17]; 13.5 µM (inactive) in test [18]. In addition, the figures for the GI50 in [19] and in test [20] were 4.45 µM (inactive) and 13.2 µM (inactive), respectively.
On to `O=[N+]([O-])c1cccc2nc3ccccc3c(NCCc3cccc[n+]3[O-])c12`, for which the GI50 is < 0.0168 µM (active) in test [1]; < 0.0159 µM (active) in [2]; 0.0103 µM (active) in test [3]; < 0.0402 µM (active) in [4]; < 0.01 µM (active) in test [5]; < 0.01 µM (active) in [6]. Further, the GI50 in test [7] is < 0.0212 µM (active); in [8], < 0.0427 µM (active); in test [9], 0.0168 µM (active); in [10], < 0.0105 µM (active); in [11], 0.0153 µM (active); in test [12], < 0.0144 µM (active). The GI50 is < 0.0144 µM (active) in test [13]; 0.0738 µM (active) in test [14]; < 0.0115 µM (active) in [15]; < 0.0385 µM (active) in test [16]; 0.0196 µM (active) in [17]; < 0.0199 µM (active) in [18]. Besides, the GI50 was < 0.01 µM (active) in [19] and < 0.0231 µM (active) in test [20].
As to `Cn1c2c(c3ccccc31)CCN1C(=O)C3SC21C1C(=O)N(c2ccccc2)C(=O)C31` (stereo not given), the GI50 in test [1] was > 100 µM (inactive); in test [2], > 100 µM (inactive); in test [3] it was 33 µM (inactive); in test [4], > 100 µM (inactive); in [5], 41.8 µM (inactive); in [6] it was > 100 µM (inactive). For the same molecule, the GI50 is > 100 µM (inactive) in test [7]; 25 µM (inactive) in [8]; 40.4 µM (inactive) in test [9]; > 100 µM (inactive) in [10]; > 100 µM (inactive) in test [11]; 38.5 µM (inactive) in test [12]. Moreover, the GI50 in test [13] was > 100 µM (inactive); in [14], 40.3 µM (inactive); in test [15], > 100 µM (inactive); in test [16] it was > 100 µM (inactive); in test [17], > 100 µM (inactive); in [18], > 100 µM (inactive). Besides, the GI50 was 35.3 µM (inactive) in [19] and 20 µM (inactive) in test [20].
Turning to `CCOC(=O)N1CCN(c2ccc3c(C)cc(C)nc3n2)CC1`, the GI50 in test [1], in test [2], in test [3], in test [4], in [5] and in [6] was > 100 µM (inactive) in each case. The GI50 in test [7], in [8], in [9], in test [10], in test [11] and in test [12] was > 100 µM (inactive) in each case. The GI50 in test [13], in [14], in test [15], in test [16], in test [17] and in [18] was > 100 µM (inactive) each time. The GI50 in test [19] and in [20] was > 100 µM (inactive) in each case.
Turning to `C[N+](C)(C)CC(=O)N/N=C(\C(=O)NC1=C(Cl)C(=O)c2ccccc2C1=O)C(C#N)c1nc(-c2ccc([N+](=O)[O-])cc2)cs1` (stereo not given), the GI50 in test [1] is 8.63 µM (inactive); in test [2], 4.54 µM (inactive); in [3], 10.6 µM (inactive); in test [4], 26.2 µM (inactive); in test [5], 17.2 µM (inactive); in test [6], 6.08 µM (inactive). Also, the GI50 in test [7] was 14.1 µM (inactive); in [8] it was 5.73 µM (inactive); in test [9] it was 10.8 µM (inactive); in test [10] it was 3.15 µM (inactive); in test [11] it was 1.74 µM (inactive); in test [12] it was 13.4 µM (inactive). The GI50 in test [13] is 1.86 µM (inactive); in test [14] it was 11.4 µM (inactive); in test [15] it was 2.51 µM (inactive); in test [16], 1.02 µM (active); in test [17], 11.2 µM (inactive); in [18], 9.42 µM (inactive). The GI50 in [19] is 5.62 µM (inactive); in [20], 3.18 µM (inactive).

Values taken from ChEMBL document CHEMBL1201862, “PubChem BioAssay data set” (2004).
